Measurements taken from the supplement of paper PMC10933113.
± gives the uncertainty stated by the source.

What was measured:
[1] = test system: KeratinoSens (HaCaT ARE-luciferase) cells; assay: AC50 of Nrf2/ARE luciferase induction; higher = less potent; settings: exposure time: 24 h
[2] = test system: KeratinoSens (HaCaT ARE-luciferase) cells; assay: cytotoxicity AC50 (CellTiter-Fluor viability); higher = less cytotoxic; settings: exposure time: 24 h
[3] = test system: THP-1; assay: efficacy of IL-8 induction relative to DMSO (% activity); higher = stronger induction; settings: exposure time: 18 h
[4] = test system: lysine peptide Ac-RFAAKAA-COOH; assay: efficacy of lysine peptide change (negative = depletion) (% activity); higher = less depletion; settings: incubation time: 24 h
[5] = test system: cysteine peptide Ac-RFAACAA-COOH; assay: efficacy of cysteine peptide change (negative = depletion) (% activity); higher = less depletion; settings: incubation time: 24 h
[6] = test system: KeratinoSens (HaCaT ARE-luciferase) cells; assay: efficacy of ARE luciferase induction relative to DMSO (% activity over DMSO); higher = stronger induction; settings: exposure time: 24 h
[7] = test system: cysteine peptide Ac-RFAACAA-COOH; assay: AC50 of cysteine peptide concentration-response (direction given by sign of efficacy); higher = less potent; settings: incubation time: 24 h
[8] = test system: THP-1; assay: AC50 of IL-8 secretion induction; higher = less potent; settings: exposure time: 18 h

Row | Structure (SMILES) | AC50 of Nrf2/ARE luciferase induction [1] | cytotoxicity AC50 [2] | efficacy of IL-8 induction [3] | efficacy of lysine peptide change [4] | efficacy of cysteine peptide change [5] | efficacy of ARE luciferase induction [6] | AC50 [7] | AC50 of IL-8 secretion induction [8]
1 | c1ccc(Nc2ccc(Nc3ccccc3)cc2)cc1 [N,N'-Diphenyl-p-phenylenediamine] | 22.5 µM | 55.2 ± 14 µM | 9.77 ± 9.9 | -22.2 ± 3.3 | -119 ± 12 | 54.7 ± 14 | 23 ± 18 µM | 
2 | CC/C=C\C/C=C\C/C=C\CCCCCCCC(=O)OCC [Ethyl linolenate] | 18.4 µM | 32.9 ± 2.2 µM | 14.7 ± 5.5 | -51.8 ± 5.7 | -100 ± 11 | 95.1 ± 71 | 9.27 ± 3.2 µM | 
3 | Cc1ccc(O)c2ncccc12 [Tiliquinol] |  | 2.47 ± 0.62 µM | 117 ± 19 | -8.95 ± 16 | -11.2 ± 4.1 | -35.2 ± 3.8 |  | 4.38 µM
4 | O=C(Nc1ncc([N+](=O)[O-])s1)c1cccs1 [Tenonitrozole] | 8.8 µM | 12.7 ± 2 µM | 6.75 ± 5.9 | 33.7 ± 8.7 | -93.3 ± 27 | 27.5 ± 48 | 96.8 ± 13 µM | 
5 | O=C(/C=C/C=C/c1ccc2c(c1)OCO2)N1CCCCC1 [Piperine] | 29.1 µM | 44 ± 11 µM | 13.7 ± 14 | 1.32 ± 18 | -72.8 ± 22 | 76 ± 12 | 80.8 ± 18 µM | 
6 | c1ccc2sc(SNC3CCCCC3)nc2c1 [N-Cyclohexyl-2-benzothiazolesulfenamide] |  |  | 101 ± 42 | 24.6 ± 4.2 | -89.9 ± 7 | 135 ± 140 | 11.1 ± 3.1 µM | 85.9 µM
7 | C=CC(=O)OCC(COC(=O)C=C)(COC(=O)C=C)COC(=O)C=C [Pentaerythritol tetraacrylate] | 15.8 µM | 25.3 ± 4.1 µM | 23.5 ± 10 | -27.5 ± 6 | -102 ± 14 | 118 ± 5.8 | 3.11 ± 0.76 µM | 
8 | C/C=C/C=C/CCCCCCCO [Codlelure] | 73.7 µM | 44.9 ± 5.2 µM | 8.57 ± 7.8 | 20.6 ± 4.8 | -104 ± 14 | 1300 ± 400 | 28.6 ± 15 µM | 
9 | c1ccc2c(c1)OCC(C1=NCCN1)O2 (stereo not given) [Idazoxan] | 12.6 µM | 22.4 µM | 12.4 ± 3.5 | -1.64 ± 20 | -124 ± 14 | 39.9 ± 3.1 | 27.3 ± 3.8 µM | 
10 | COc1cccc2c1C(=O)c1c(O)c3c(c(O)c1C2=O)C[C@@](O)(C(=O)CO)C[C@@H]3O[C@H]1C[C@H](N)[C@H](O[C@@H]2CCCCO2)[C@H](C)O1 [Pirarubicin*] | 20.5 µM | 17.9 ± 6.5 µM | 21.1 ± 6.6 | -33.9 ± 4.4 | -101 ± 3.8 | 638 ± 360 | 3.01 ± 1.5 µM | 
11 | [Cl][Bi]([Cl])([c]1ccccc1)([c]1ccccc1)[c]1ccccc1 [Triphenylbismuthine dichloride] | 14.2 µM | 28.2 µM | 92.2 ± 110 | 23.5 ± 22 | -96.9 ± 5.6 | 95.5 ± 39 | 0.85 ± 0.38 µM | 
12 | O=C(CCl)c1ccccc1 [2-Chloroacetophenone] | 35.5 µM | 57 ± 12 µM | 29.4 ± 7.2 | 9.03 ± 16 | -94.1 ± 28 | 327 ± 92 | 49.4 ± 34 µM | 
13 | O=C(CCl)CCl [1,3-Dichloropropanone] | 40.9 µM |  | 22.5 ± 6.2 | -12.5 ± 16 | -107 ± 9.9 | 84.2 ± 64 | 35.6 ± 4.1 µM | 
14 | CCCSS/C(CCO)=C(/C)N(C=O)Cc1cnc(C)nc1N [Prosultiamine] | 15.8 µM | 26.1 ± 1.8 µM | 30.5 ± 12 | 154 ± 29 | -112 ± 9.3 | 433 ± 21 | 1.59 ± 0.18 µM | 
15 | CCCCNC(=S)NCCCC [N,N'-Dibutylthiourea] |  | 62 ± 25 µM | 90.2 ± 38 | 85.4 ± 13 | -32.7 ± 21 | 41.8 ± 35 |  | 89.1 µM
16 | Nc1ccccc1N [1,2-Phenylenediamine*] | 34.4 µM |  | 4.93 ± 5.2 | 7.79 ± 12 | -90.9 ± 5 | 88 ± 31 | 1.06 ± 0.49 µM | 
17 | CC(C)(C)c1cc(O)c(C(C)(C)C)cc1O [2,5-Di-tert-butylbenzene-1,4-diol] | 42.1 µM | 34.2 ± 2.2 µM | 40.9 ± 4.8 | -4 ± 6.9 | -80.8 ± 14 | 175 ± 86 | 85.9 ± 5.6 µM | 
18 | CCOc1ccc2nc3cc(N)ccc3c(N)c2c1 [Ethacridine lactate monohydrate] | 29.4 µM |  | 13.6 ± 2.8 | 107 ± 12 | -93.5 ± 7.5 | 86.2 ± 47 | 0.29 ± 0.07 µM | 
19 | [CH3][Hg][Cl] [Methyl mercuric (II) chloride] | 3.98 µM | 6.57 ± 0.44 µM | 73.6 ± 0.91 | 0 | -97.5 ± 1.4 | 188 ± 110 | 46.5 ± 3.1 µM | 
20 | C=CC(=O)OCCOC(=O)CCC(=O)O [4-[2-(Acryloyloxy)ethoxy]-4-oxobutanoic acid] | 61.3 µM |  | 0 | -2.94 ± 13 | -111 ± 7.3 | 87.4 ± 29 | 34.1 ± 14 µM | 
21 | CN1C[C@H](C(=O)N[C@]2(C)O[C@@]3(O)[C@@H]4CCCN4C(=O)[C@H](Cc4ccccc4)N3C2=O)C=C2c3cccc4[nH]cc(c34)C[C@H]21 [Ergotamine D-tartrate*] | 23.1 µM |  | 15.3 ± 4.1 | 14.3 ± 3.5 | -98.5 ± 6.4 | 61.1 ± 17 | 11.4 ± 2.6 µM | 
22 | Nc1ccc(Cl)cc1N [4-Chloro-1,2-diaminobenzene*] | 13.7 µM |  | 10.3 ± 2.3 | -6.76 ± 18 | -99.1 ± 6 | 70 ± 21 | 5.4 ± 2.3 µM | 
23 | CC(C)CCCCCCCOC(=O)c1ccc(C(=O)OCCCCCCCC(C)C)c(C(=O)OCCCCCCCC(C)C)c1 [Triisodecyl trimellitate] | 42.2 µM |  | 13.5 ± 0.9 | -10.8 ± 18 | -22.8 ± 5 | 72.5 ± 41 | 19.9 µM | 
24 | Cc1cc(C2(c3cc(C)c(O)cc3C)OS(=O)(=O)c3ccccc32)c(C)cc1O [p-Xylenol blue] |  | 28.6 ± 6 µM | 45.6 ± 8.1 | 121 ± 16 | -13.7 ± 2.3 | 0 |  | 52.2 µM
25 | COC(=O)Nc1nc2cc(Sc3ccccc3)ccc2[nH]1 [Fenbendazole] |  | 3.46 ± 1.9 µM | 213 ± 14 | 33.8 ± 41 | 0 | 46 ± 53 |  | 39.8 µM
26 | Clc1nc(C(Cl)(Cl)Cl)c(Cl)c(Cl)c1Cl [2,3,4,5-Tetrachloro-6-(trichloromethyl)pyridine] |  | 37.1 ± 4.7 µM | 33.7 ± 5.8 | 1.85 ± 3.2 | -2.03 ± 3.5 | 43.7 ± 28 |  | 47.3 µM
27 | CCN(CC)c1ccc(C(=O)c2ccccc2C(=O)O)c(O)c1 [2-[4-(Diethylamino)-2-hydroxybenzoyl]benzoic acid] |  | 30.5 ± 2 µM | 75.5 ± 11 | -5.24 ± 15 | 1.78 ± 13 | 56.6 ± 46 |  | 38.4 µM
